Measured values published in ChEMBL document CHEMBL3507680, “University of Dundee, Gates Library screen for HepG2 cell viability”.

Test: Human HepG2 cell viability assay in 384 well format
Assay type: toxicity, cell-based
Parameters: dose 125 nL, time 70.5 hour; cytotoxicity at 70.5 h: concentration not given beside the values
Conditions: HepG2 cells, read-out: Inhibition

SMILES	cytotoxicity at 70.5 h [%]
O=c1[nH]ncn1-c1cccc(C(F)(F)F)c1	1.41
CC(=O)Cn1ncc(N2CCOCC2)cc1=O	-0.483
COc1ccsc1C(=O)NCCN1CCOCC1	-7.25
CN(C)c1ncc(I)c(C2CCCCN2C)n1 (stereo not drawn)	-3.55
Cn1cc(CN(Cc2ccccn2)Cc2ccccc2Cl)cn1	-1.3
CN(C)Cc1cnc(C2CN(C(=O)c3ccccc3Cl)CCO2)[nH]1 (stereo not drawn)	-1.46
CN1C(=O)CC[C@@H]2N(C(=O)CCc3cccnc3)CCCC[C@@]21C	-1.68
Cc1nn(C)cc1S(=O)(=O)N(C)[C@@H]1CCC[C@@H](n2ccnc2)[C@@H]1O	19.1
CN1CCCC(Cc2nccnc2Cl)CC1 (stereo not drawn)	-3.4
CN([C@@H]1CCC[C@@H](n2ccnc2)[C@@H]1O)S(=O)(=O)c1cn(C)cn1	19.9
COC1CCCOC12CCN(C(=O)c1ccc3[nH]nnc3c1)CC2 (stereo not drawn)	-5.57
O=c1c(Cc2ccccc2)c(O)ccn1Cc1cccs1	23.3
COc1ccc(SCC2CNc3nc4ccccc4c(=O)n32)cc1 (stereo not drawn)	1.56
O=c1c(Cc2ccccc2)c(O)ccn1CCc1ccccc1	-3.9
CC(=O)c1ccc(-c2cc(C(F)(F)F)cc(N(C)C)n2)cc1	-7.82
O=C(NC1CC1)c1cc(C(F)(F)F)cc(C(=O)NC2CC2)n1	23
O=C(O)Cc1cn2cc(C(F)(F)F)ccc2n1	-10.8
O=c1[nH]c2ncccc2n1C1CCCC1	-0.61
CC(O)c1cn(Cc2cccc(C(F)(F)F)c2)nn1 (stereo not drawn)	-4.44
CC(O)c1cn(Cc2ccc(Cl)cc2Cl)nn1 (stereo not drawn)	-7.31
OC1(CNc2ccc(F)cc2)CCNCC1	-7.97
O=C(CC(SC1CCCCC1)C(=O)O)c1ccc(Br)cc1 (stereo not drawn)	0.38
Cc1ccc(NCC2(O)CCNCC2)cc1C	-1.72
O=C(CN1CCCCC1)Nc1cc(C(F)(F)F)ccc1-n1cccc1	-9.88
O=c1c2ccccc2nc2n1C(CSc1ccc(Cl)cc1Cl)CN2 (stereo not drawn)	29.6

SMILES	cytotoxicity at 70.5 h [%]
CC(=O)c1sc(Nc2ccc(Cl)cn2)nc1C	31.3
CC(C)CSCCN1CCCN(S(C)(=O)=O)CC1	9.07
CN(CC(=O)NCC(F)(F)F)C(=O)c1ccc(C(=O)OC(C)(C)C)cc1	-0.193
O=S(=O)(c1cc(F)ccc1F)N1CCCC1c1ccncc1 (stereo not drawn)	-3.85
CN(C(=O)NC1CC1)C1CCN(c2ccc(Cl)cc2)CC1	-7.5
CN(C(=O)Nc1ccncc1)C1CCN(c2ccc(Cl)cc2)CC1	1.01
Cn1cc(C2CCCN2C(=O)c2cnc(-c3cccs3)s2)cn1 (stereo not drawn)	22.5
CC1CCc2nc(NS(=O)(=O)c3cnn(C)c3)sc2C1 (stereo not drawn)	0.918
OCc1c(Cl)ncn1-c1ccc(F)cc1	2.53
Cc1ccc(-n2cnc(Cl)c2CO)cc1	-3.28
OCc1c(Cl)ncn1-c1ccccc1	0.513
Cc1cccc(-n2cnc(Cl)c2CO)c1	-0.946
c1ccc(-c2nc(CCNCc3ccccn3)co2)cc1	-1.18
COc1ccc(Br)cc1SCCC(N)=O	-0.68
Cc1ccccc1C(C#N)NC(=O)CCCOc1cccnc1 (stereo not drawn)	-0.163
CN(C(=O)CSc1ncc[nH]1)c1ccccc1	31.6
CC(C)CSCCN1CCN(S(C)(=O)=O)CC1	0.763
Cc1cc(C(=O)NCCc2nc3c(s2)CCCC3)n(C)n1	-3.4
CN(CC1CCOC1)c1ncc(Br)cn1 (stereo not drawn)	-3.89
CCN(CC)C(=O)CSc1ncc[nH]1	-8.92
Cc1cc(Br)cnc1N(C)CC1CCOC1 (stereo not drawn)	-3.38
CCOc1nnc(CN(CC)CC(=O)NC(C)C)s1	-1.99
CN1CCN(C)c2cc(NC(=O)c3cc[nH]n3)ccc2C1	6.77
COc1ccc(C(C)NCc2cscn2)cc1Cn1cccn1 (stereo not drawn)	-7.35
CC(C)(C)c1nc(CN(Cc2ccccc2F)C2CCCCC2)no1	-8.5

SMILES	cytotoxicity at 70.5 h [%]
CC(O)CNC(=O)Nc1ccc(Br)cc1Br (stereo not drawn)	-3.83
NC(=O)c1cccc(CS(=O)(=O)CC(O)Cn2cccn2)c1 (stereo not drawn)	-4.59
Cc1ccc(S(=O)(=O)Nc2ccc(N3CCSCC3)c(C(=O)O)c2)s1	-10.2
O=S(=O)(Cc1cccc(Cl)c1)CC(O)Cn1cccn1 (stereo not drawn)	-5.5
CC1(C)COCCN1C(=O)c1ccc(Cn2cncn2)cc1	-9.35
CC(C)c1nnc(NC(=O)C2CSCN2C(=O)C2CCC2)s1 (stereo not drawn)	-8.18
COc1ccccc1Cc1nnc(SCCS(C)(=O)=O)o1	-7.42
Cc1nnc(NC(=O)C2CSCN2C(=O)C2CCCC2)s1 (stereo not drawn)	-3.18
C[S+]([O-])CCNC(=O)N1CCSC(C)(C)C1 (stereo not drawn)	-1.1
CCc1cc2c(N3CCCC(c4cc(C(N)=O)[nH]n4)C3)ncnc2s1 (stereo not drawn)	-4.85
O=C(COc1ccccc1Br)N1CCOc2ccncc21	-3.18
CC(=O)NCCNC(=O)Nc1ccc(Br)cc1C(C)C	15.2
CC(=O)Nc1cc(C(C)(C)C)sc1C#N	-3.4
Cc1cnn(CC(C)NCc2cccnc2)c1 (stereo not drawn)	-5.07
CN1CCOC(CNCC(=O)NCCCc2ccccc2)C1 (stereo not drawn)	4.87
CN(CC(=O)NCC1CCCCC1)S(=O)(=O)c1cccnc1	-3.39
Cc1cc(C(=O)NC2CCN(c3nnc(C)c(C)c3C#N)CC2)no1	-6.5
Cc1nccc(CNC(=O)NCCC(=O)N2CCCc3ccccc32)n1	-2.13
Cc1cc(C(=O)NCCC(=O)N2CCCc3ccccc32)no1	-4.18
COc1cc(CNC(=O)COC2CCCCC2)ccc1O	-4.46
CCc1ccc(C(=O)N2CCCCC2CNS(C)(=O)=O)o1 (stereo not drawn)	-2.32
CN1N=C(C(=O)NCCc2ccc(OC3CCCC3)cc2)CCC1=O	1.04
Cn1cc(C(=O)NCc2ccc(OC3CCCCC3)nc2)ccc1=O	-7.34
COc1ccccc1CN(C)C(=O)C[S+]([O-])Cc1cc(C)on1 (stereo not drawn)	-1.97
Cc1nnc(NC(=O)NCCN(C(=O)OC(C)(C)C)C2CC2)s1	-4.34

SMILES	cytotoxicity at 70.5 h [%]
Cn1cc(C(=O)NCCc2ccc(OC3CCCC3)cc2)ccc1=O	1.62
CC1CCN(Cc2ccccc2CNC(=O)C2CNC(=O)N2)CC1 (stereo not drawn)	-4.5
COc1ccc(CN2CC(n3cccn3)C2)cc1F	-2.24
COc1ccccc1CCNC(=O)CNCC1CN(C)CCO1 (stereo not drawn)	-3.47
Cc1cc(CNC(=O)NCCCC(=O)N2CCc3ccccc32)no1	-2.16
Cc1cc(C(=O)Nc2ccc(OCCN3CCN(C)CC3)cc2)[nH]n1	0.21
COc1ccc(CN(C)C(=O)CN2CC(n3cc(C)cn3)C2)cc1F	-2.77
CN(CCc1ccccn1)C(=O)Cn1cc(-c2ccccc2)nn1	-3.22
CC(C)c1nn(C)c(N(C)C)c1CNCc1ccnc(N(C)C)c1	-0.315
Cc1nsc(N2CCCN(C(=O)CCc3ccsc3)CC2)n1	-2
COc1ccc(CCC(=O)N2CCN(c3nc(C)ns3)CC2)cc1	-0.82
CCc1noc(CN2CCN(C(=O)OC(C)(C)C)C(C)C2)n1 (stereo not drawn)	2.89
CN1CCOC(CNCC(=O)NCCc2ccc(F)cc2)C1 (stereo not drawn)	-3.15
CNC(=O)c1cccc(CN2CCC(N(C)Cc3noc(C)n3)C2)c1 (stereo not drawn)	-4.76
CCc1ccc(C(C)NCc2nccn2Cc2ccccc2)o1 (stereo not drawn)	-9.96
COCCCn1ccc(NC2CCSCC2)n1	-8.74
CC(C)(C)C(=O)NCCCc1nc2ccccc2[nH]1	-11.6
O=C(NCCNc1ncccn1)NCCc1c(F)cccc1F	-13.1
O=C(NCCNc1ncccn1)c1ccc(OCc2ccccc2)nc1	-13.5
Cc1cc(CNC(=O)Nc2ccc(C(=O)NC3CC3)cc2)no1	-14.3
COC(=O)CCNC(=O)c1ccc(OCc2ccccc2)nc1	-6.92
Cc1nnc(CSc2n[nH]c(-c3ccccn3)n2)o1	-7.45
N#CC1COCCN1S(=O)(=O)c1ccc2ccccc2c1 (stereo not drawn)	-1.81
Cn1ncc2c(=O)[nH]c(N3CCCC3c3cccc(Cl)c3)nc21 (stereo not drawn)	-1.55
CC(C)NC(=O)NC(C)c1ccc(-c2ccncc2)cc1 (stereo not drawn)	-7.15

SMILES	cytotoxicity at 70.5 h [%]
Cc1cscc1C(=O)Nc1cncnc1N(C)C	-7.99
N#Cc1cccc(S(=O)(=O)N(CC2CCC2)c2cn[nH]c2)c1	-8.03
CCc1nc(CC)n(CC(=O)N(CC)CC)n1	-8.83
CC1CN(C(=O)c2sccc2Br)CCO1 (stereo not drawn)	-10.9
Cc1ccc2c(c1)C(NCc1ccccn1)CC2 (stereo not drawn)	-12.6
CNC(=O)c1cccc(CN2CCC(N(C)Cc3nnc(C)o3)C2)c1 (stereo not drawn)	-6.28
CN(CC(N)=O)Cc1c(Cl)ccc2cccnc12	-2.22
O=C1CCCN1CCCN1CCCC(Cn2cncn2)C1 (stereo not drawn)	3.37
O=C1OCCC1N1CCN(c2ccccn2)CC1 (stereo not drawn)	-15.5
CN(Cc1ccc(F)c2cccnc12)C1CCS(=O)(=O)C1 (stereo not drawn)	-9.82
Cc1nnc2ccc(N3CCN(Cc4nccn4C)CC3)nn12	5.33
Cc1cc(S(C)(=O)=O)c(C)c(S(=O)(=O)NCC2CCCO2)c1 (stereo not drawn)	-16.8
O=C1CCCN1CCN1CCCCC1Cn1cccn1 (stereo not drawn)	-10.6
CN(CCC#N)C(=O)CN1CCCN(Cc2noc(C3CC3)n2)CC1	-0.995
NC(=O)c1cncc(N2CCN(Cc3ccc(F)cc3Cl)CC2)n1	-3.73
COC(=O)c1cccc(CNC(=O)NCCC(F)(F)F)c1	1.57
Cc1ncc(CNC(=O)N(C)Cc2ccc([S+](C)[O-])cc2)s1 (stereo not drawn)	-4.15
Cc1n[nH]cc1CNC(=O)Nc1cccc(OCC(F)(F)F)c1	-6.62
CCOc1ccc(Cl)c(C(=O)NC(C)C(N)=O)n1 (stereo not drawn)	-5.7
CC(C)c1nn(C)cc1CNCc1cccnc1N(C)C	2.18
CC(C)c1nn(C)cc1CNCc1ccnc(N(C)C)c1	-7.83
Cc1n[nH]cc1CNCC(O)c1ccc(F)c(F)c1 (stereo not drawn)	-7.55
CCc1nc(-c2ccnc(N3CCNCC3)n2)no1	-2.35
